A word on the IC50: it is the concentration at which inhibition is half-maximal.

Sequence of NaV 1.8 channel (Q9Y5Y9 whole entry): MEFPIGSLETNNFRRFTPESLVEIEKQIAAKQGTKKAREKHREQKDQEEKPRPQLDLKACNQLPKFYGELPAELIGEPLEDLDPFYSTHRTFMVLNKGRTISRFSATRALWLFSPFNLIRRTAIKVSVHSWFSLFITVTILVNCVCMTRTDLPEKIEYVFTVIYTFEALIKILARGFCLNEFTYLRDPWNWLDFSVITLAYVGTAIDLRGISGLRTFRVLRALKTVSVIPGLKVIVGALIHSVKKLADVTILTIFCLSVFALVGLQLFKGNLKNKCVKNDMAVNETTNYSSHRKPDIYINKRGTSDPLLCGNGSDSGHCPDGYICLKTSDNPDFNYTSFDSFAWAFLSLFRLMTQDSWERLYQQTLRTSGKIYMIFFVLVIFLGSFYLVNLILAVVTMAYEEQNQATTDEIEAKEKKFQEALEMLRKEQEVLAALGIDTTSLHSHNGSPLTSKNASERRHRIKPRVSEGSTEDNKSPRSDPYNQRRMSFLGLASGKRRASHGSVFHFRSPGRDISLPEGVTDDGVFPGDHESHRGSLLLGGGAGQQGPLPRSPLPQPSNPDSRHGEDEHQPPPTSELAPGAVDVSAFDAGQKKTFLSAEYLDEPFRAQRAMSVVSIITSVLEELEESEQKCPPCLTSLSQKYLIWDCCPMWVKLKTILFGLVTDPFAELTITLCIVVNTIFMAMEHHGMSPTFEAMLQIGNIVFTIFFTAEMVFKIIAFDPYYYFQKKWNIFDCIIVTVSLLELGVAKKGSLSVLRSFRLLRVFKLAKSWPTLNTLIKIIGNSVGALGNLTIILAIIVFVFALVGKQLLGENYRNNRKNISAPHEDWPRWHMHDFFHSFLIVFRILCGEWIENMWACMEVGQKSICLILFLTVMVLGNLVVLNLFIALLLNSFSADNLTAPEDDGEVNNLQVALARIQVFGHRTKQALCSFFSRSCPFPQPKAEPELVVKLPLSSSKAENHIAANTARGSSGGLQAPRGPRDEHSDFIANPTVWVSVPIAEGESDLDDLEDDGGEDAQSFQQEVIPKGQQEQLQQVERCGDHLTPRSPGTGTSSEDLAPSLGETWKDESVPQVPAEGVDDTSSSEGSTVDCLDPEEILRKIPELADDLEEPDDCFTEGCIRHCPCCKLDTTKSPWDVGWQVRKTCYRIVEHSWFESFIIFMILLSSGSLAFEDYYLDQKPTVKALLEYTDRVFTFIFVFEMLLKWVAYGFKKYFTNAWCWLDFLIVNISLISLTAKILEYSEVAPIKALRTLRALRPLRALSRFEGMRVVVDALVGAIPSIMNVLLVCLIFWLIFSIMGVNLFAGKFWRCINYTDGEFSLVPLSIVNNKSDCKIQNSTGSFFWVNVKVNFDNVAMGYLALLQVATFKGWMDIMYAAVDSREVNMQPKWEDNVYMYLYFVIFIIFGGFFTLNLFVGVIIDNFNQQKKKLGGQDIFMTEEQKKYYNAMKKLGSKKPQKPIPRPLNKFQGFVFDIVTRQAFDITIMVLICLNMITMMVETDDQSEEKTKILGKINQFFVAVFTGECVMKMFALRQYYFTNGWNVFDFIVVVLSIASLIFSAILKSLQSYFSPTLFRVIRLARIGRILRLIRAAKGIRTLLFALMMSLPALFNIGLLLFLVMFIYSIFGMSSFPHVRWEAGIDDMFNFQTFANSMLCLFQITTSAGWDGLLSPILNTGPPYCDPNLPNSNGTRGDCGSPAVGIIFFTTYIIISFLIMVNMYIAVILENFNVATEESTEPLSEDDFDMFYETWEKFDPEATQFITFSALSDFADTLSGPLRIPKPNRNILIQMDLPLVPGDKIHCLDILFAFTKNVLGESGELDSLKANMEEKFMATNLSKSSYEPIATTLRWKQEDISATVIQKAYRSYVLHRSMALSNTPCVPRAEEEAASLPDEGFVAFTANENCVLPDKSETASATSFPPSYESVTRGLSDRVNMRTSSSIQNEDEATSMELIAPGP

This assay addresses NaV 1.8 channel (Homo sapiens, UniProt Q9Y5Y9). In words: Activity against NaV 1.8 channel (optical membrane potential assay). It is filed as cell-based. In outline: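 Cells expressing the NaV of interest loaded with CC2-DMPE (30 min, room temperature) then DiSBAC2(3) with ABSCl and veratridine; compound incubated 20–30 min. Depolarization triggered by sodium add-back and read on VIPR as 460/580 nm FRET ratio (Rf/Ri), normalized to tetracaine and untreated controls.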
In the case of `Cc1ccc2c(N3CC[C@@H](NC(=O)c4ccccn4)C3)nc(-c3c(O)cccc3F)nc2c1` [Example 351, N—((R)-1-(2-(2-Fluoro-6-hydroxyphenyl)-7-methylquinazolin-4-yl)pyrrolidin-3-yl)picolinamide], the IC50 lay in the range of 2 to 10 µM.
As to `Cc1ccc2c(N3CC[C@@H](NC(=O)c4cccnc4)C3)nc(-c3c(O)cccc3F)nc2c1` [Example 352, N—((R)-1-(2-(2-Fluoro-6-hydroxyphenyl)-7-methylquinazolin-4-yl)pyrrolidin-3-yl)nicotinamide], the IC50 is above 10 µM.
In the case of `Cc1ccc2c(N3CC[C@@H](NC(=O)c4ccncc4)C3)nc(-c3ccccc3O)nc2c1` [Example 353, N—((R)-1-(2-(2-Hydroxyphenyl)-7-methylquinazolin-4-yl)pyrrolidin-3-yl)isonicotinamide] it was above 10 µM; in that of `Cc1ccc2c(N3CC[C@@H](NC(=O)c4ccccn4)C3)nc(-c3ccccc3O)nc2c1` [Example 354, N—((R)-1-(2-(2-Hydroxyphenyl)-7-methylquinazolin-4-yl)pyrrolidin-3-yl)picolinamide], 2 to 10 µM.
Turning to `O=C(NC[C@@H]1CCN(c2nc(-c3ccccc3O)nc3ccc(F)cc23)C1)O[C@@H]1CCOC1` [Example 355, (R)-Tetrahydrofuran-3-yl ((S)-1-(6-fluoro-2-(2-hydroxyphenyl)quinazolin-4-yl)pyrrolidin-3-yl)methylcarbamate], the IC50 was above 10 µM.
Take `O=C(NC[C@@H]1CCN(c2nc(-c3ccccc3O)nc3ccc(F)cc23)C1)O[C@H]1CCOC1` [Example 356, (S)-Tetrahydrofuran-3-yl ((S)-1-(6-fluoro-2-(2-hydroxyphenyl)quinazolin-4-yl)pyrrolidin-3-yl)methylcarbamate]: the IC50 was above 10 µM.
In the case of `O=C(NC[C@@H]1CCN(c2nc(-c3ccccc3O)nc3ccc(F)cc23)C1)C1CC1` [Example 357, N—(((S)-1-(6-Fluoro-2-(2-hydroxyphenyl)quinazolin-4-yl)pyrrolidin-3-yl)methyl)cyclopropanecarboxamide] it was above 10 µM; in that of `O=C(N[C@@H]1CCN(c2nc(-c3ccccc3O)nc3ccc(F)cc23)C1)C(O)c1ccc(F)cc1` (stereo partly drawn) [Example 358, N—((R)-1-(6-Fluoro-2-(2-hydroxyphenyl)quinazolin-4-yl)pyrrolidin-3-yl)-2-(4-fluorophenyl)-2-hydroxyacetamide], above 10 µM; in that of `Cc1ccc2c(N3CC[C@@H](NC(=O)C(O)c4ccc(F)cc4)C3)nc(-c3c(O)cccc3F)nc2c1` (stereo partly drawn) [Example 359, N—((R)-1-(2-(2-Fluoro-6-hydroxyphenyl)-7-methylquinazolin-4-yl)pyrrolidin-3-yl)-2-(4-fluorophenyl)-2-hydroxyacetamide], above 10 µM.
In the case of `Cc1ccc2c(N3CC[C@@H](NC(=O)C(O)c4ccc(F)cc4)C3)nc(-c3ccccc3O)nc2c1` (stereo partly drawn) [Example 360, 2-(4-Fluorophenyl)-2-hydroxy-N—((R)-1-(2-(2-hydroxyphenyl)-7-methylquinazolin-4-yl)pyrrolidin-3-yl)acetamide] it was above 10 µM.
With `Cc1ccc2c(N3CC[C@@H](NC(=O)[C@H](O)CC(C)(C)C)C3)nc(-c3ccccc3O)nc2c1` [Example 361, (2R)-2-Hydroxy-N—((R)-1-(2-(2-Hydroxyphenyl)-7-methylquinazolin-4-yl)pyrrolidin-3-yl)-4,4-dimethylpentanamide] the figure was 2 to 10 µM.
Regarding `Cc1ccc2c(N3CC[C@H](CNC(=O)OCc4ccccc4)C3)nc(-c3ccccc3O)nc2c1` [Example 362, Benzyl ((R)-1-(2-(2-hydroxyphenyl)-7-methylquinazolin-4-yl)pyrrolidin-3-yl)methylcarbamate], the 50% inhibitory concentration (IC50) is above 10 µM.
With `Cc1ccc2c(N3CC[C@@H](CNC(=O)OCc4ccccc4)C3)nc(-c3ccccc3O)nc2c1` [Example 363, Benzyl ((S)-1-(2-(2-hydroxyphenyl)-7-methylquinazolin-4-yl)pyrrolidin-3-yl)methylcarbamate] the figure was 2 to 10 µM.

(Values after patent US7928107B2, “Quinazolines useful as modulators of ion channels” (Vertex Pharmaceuticals Incorporated, priority 2004, dated 2011).)
